Tests used:
ATF6 = format: cell-based, mouse
Procedure: Mouse Neuro-2a cells were cultured using standard tissue culture techniques and maintained in 45% DMEM, 45% OptiMEM and 10% FBS. Plasmid concentrations used for transfection were as follows: 500 ng of each nAChR subunit, 75 ng of pCS2-mcherry, 250 ng of Sec24D constructs, 100 ng of pDsRed2-ER, 250 ng of GaIT-eCFP and 500 ng of ATF6-eGFP. 90,000 cells were plated in poly-D-lysine coated 35 mm MatTek glass bottom imaging dishes. The following day, plasmid DNA was mixed with cationic lipids by adding appropriate DNA concentrations to 4 μl of Expressfect transfection reagent in 200 μl DMEM final volume and incubated for 20 min at room temperature to form cationic lipid-DNA complexes. DMEM+DNA-lipid complexes were added to Neuro-2a cells in 1 ml of DMEM+10% FBS and incubated at 37° C. for 4 h. Dishes were rinsed 2× with DMEM, then filled with 3 ml of DMEM+10% FBS and incubated at 37° C. for 48 h. Nicotine, cytisine or DHβE was added at appropriate concentrations during the change of medium following 4 h incubation with Expressfect-plasmid DNA complexes.

Neuro-2a cells = format: cell-based, mouse
Procedure: Neuro-2a cells were transfected with α4-eGFP (500 ng)+β2wt (500 ng)+GaIT-mcherry (250 ng) or pDSred2-ER (100 ng) and cells were incubated for 48 h with appropriate concentrations of nicotine, cytisine or DHβE.
Two color fluorescence signals were separated with a dichroic and optical filters aligned in the emission path where green and red emission was separately aligned to the two halves of an EMCCD. Post-acquisition processing of images used Metamorph to demarcate TGN bodies and to extract number, size and intensity statistics.

α4β2 nAChRs = α4β2 nAChRs (Mus musculus, UniProt O70174+Q9ERK7); details: chronic nicotine, 200 nM for 24 hr
Description: We used superecliptic phluorin (SEP) fused to the C-terminus of alpha4 nicotinic receptors (nAChRs) to examine the subcellular distribution and trafficking dynamics of receptors expressed in cortical neurons. SEP is a pH-sensitive version of green fluorescent protein (GFP) that undergoes 488 nm excitation at neutral pH (˜7.4), but loses this excitation maximum under acidic conditions (12). As a result, SEP neither photobleaches nor fluoresces at low pH but regains its fluorescence at neutral and basic pH. Tagging of α4 on the extracellular C-terminus results in the orientation of SEP on the lumenal side of most organelle types in the secretory pathway. While the endoplasmic reticulum (ER) and cis-Golgi have lumenal pH of ˜7.2 and ˜6.7, respectively, the lumen of both the trans-Golgi network and secretory vesicles is much more acidic (pH<6.5) (39). If one illuminates via total internal reflection (TIRF) microscopy, only those receptors resident in nearly neutral organelles close to the plasma membrane, or inserted in the plasma membrane, are visible within the excitation field. Thus, receptors in the later stages of the secretory pathway neither fluoresce nor photobleach due to the acidic environment. […]

α4-eGFPβ2-wt nAChRs = target: T1, α4-eGFPβ2-wt nAChRs (Mus musculus, UniProt O70174+Q9ERK7); format: cell-based
T1 construct: expressed in transfected cells; host or cells: mouse Neuro-2a cells
Procedure: Neuro-2a cells were plated on 12 mm glass coverslips within 35 mm plastic bottom cell culture dishes. The following day, cells were transfected with 500 ng α4-eGFP and 500 ng β2-wt nAChR subunits. 24 to 48 hr later, glass coverslips were transferred to dishes on the microscope stage. Green fluorescence was visualized with an upright microscope (BX50WI, Olympus) and UV illumination with appropriate excitation filters. Agonist-induced currents were tested at a holding potential of −65 mV using a focal, relatively rapid drug application system designed to minimize desensitization (Xiao et al., 2009). We applied drugs from the lowest to highest concentration at 3 min intervals to minimize desensitization. Whole-cell patch-clamp recordings were with a MultiClamp 700B amplifier, a 1322 analog-to-digital converter, and pCLAMP 9.2 software (all from Axon Instruments, Molecular Devices). Data were sampled at 10 kHz and filtered at 2 kHz.
The intrapipette solution contained (in mM): 135 potassium gluconate, 5 KCl, 5 EGTA, 0.5 CaCl2, 10 HEPES, 2 Mg-ATP, and 0.1 GTP; the pH was adjusted to 7.2 with Tris base and the osmolarity to 300 mOsm with sucrose. The extracellular solution contained (in mM): 140 NaCl, 5 KCl, 2 CaCl2, 1 MgCl2, 10 HEPES, and 10 glucose; pH was adjusted to 7.3 with Tris base. The Nernst potential for Cl^− in the intrapipette solution is −82.9 mV. The bath was continuously perfused with extracellular solution (ECS) at room temperature (23±1° C.). The patch electrodes had resistances of 5 to 8 MΩ. The junction potential between the patch pipette and the bath solutions was nulled just before forming a gΩ seal. Series resistance was monitored and compensated by 70-80% throughout recordings. The data were ignored if the series resistance (15-30 MΩ) changed by >20% during the recording session.

T1 sequence (O70174 31-629): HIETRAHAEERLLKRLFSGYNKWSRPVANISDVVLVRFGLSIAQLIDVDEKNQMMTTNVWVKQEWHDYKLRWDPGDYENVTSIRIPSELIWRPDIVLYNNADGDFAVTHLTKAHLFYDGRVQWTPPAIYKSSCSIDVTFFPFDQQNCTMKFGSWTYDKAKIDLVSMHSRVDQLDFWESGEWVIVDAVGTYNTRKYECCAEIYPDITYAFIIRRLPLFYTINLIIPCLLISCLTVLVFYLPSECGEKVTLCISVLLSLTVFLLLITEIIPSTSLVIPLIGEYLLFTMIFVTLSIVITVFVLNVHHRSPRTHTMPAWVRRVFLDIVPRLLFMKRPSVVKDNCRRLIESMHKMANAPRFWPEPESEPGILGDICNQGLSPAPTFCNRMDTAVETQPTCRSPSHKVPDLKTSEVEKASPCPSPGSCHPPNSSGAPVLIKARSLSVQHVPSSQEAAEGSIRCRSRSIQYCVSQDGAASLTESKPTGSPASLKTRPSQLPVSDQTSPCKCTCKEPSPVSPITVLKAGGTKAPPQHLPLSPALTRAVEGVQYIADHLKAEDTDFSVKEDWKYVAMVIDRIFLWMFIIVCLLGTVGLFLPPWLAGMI
T1 sequence (Q9ERK7 26-501): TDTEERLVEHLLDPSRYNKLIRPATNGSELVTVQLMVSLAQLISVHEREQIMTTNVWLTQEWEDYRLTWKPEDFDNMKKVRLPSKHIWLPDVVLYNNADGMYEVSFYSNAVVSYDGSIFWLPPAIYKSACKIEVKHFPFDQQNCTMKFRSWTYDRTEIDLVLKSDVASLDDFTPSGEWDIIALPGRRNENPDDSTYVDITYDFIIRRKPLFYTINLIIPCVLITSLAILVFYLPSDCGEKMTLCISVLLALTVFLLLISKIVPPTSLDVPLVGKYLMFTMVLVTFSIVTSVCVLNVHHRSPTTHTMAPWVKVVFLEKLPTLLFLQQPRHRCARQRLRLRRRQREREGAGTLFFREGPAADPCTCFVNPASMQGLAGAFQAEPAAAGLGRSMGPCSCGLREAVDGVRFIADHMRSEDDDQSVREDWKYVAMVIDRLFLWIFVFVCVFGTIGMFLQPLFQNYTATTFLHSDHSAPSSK
α4β2 nAChRs, sequence (O70174 31-629): as the sequence (O70174 31-629) above
α4β2 nAChRs, sequence (Q9ERK7 26-501): as the sequence (Q9ERK7 26-501) above

Structure (SMILES): CN1CCCC1c1cccnc1 (centres unmarked) [Nicotine, nicotine]
- reduction in the ratio of nuclear to whole cell ATF6-eGFP fluorescence (ATF6): ~25%
- TGN intensity (Neuro-2a cells): no effect
- effect on the average intensity of TGN bodies (in words) (Neuro-2a cells): did not affect
- effect on the number of TGN bodies (in words) (Neuro-2a cells): increased
- increase in the average number of TGN bodies per cell (Neuro-2a cells): ~2 fold
- increase in the number of insertion events, α4β2 nAChRs (α4β2 nAChRs): ~2 fold
- evoked currents as % of maximum currents induced by 500 μM nicotine (α4-eGFPβ2-wt nAChRs): 0.44±0.07%
- fraction of the total receptor population activated (α4-eGFPβ2-wt nAChRs): 0.4%

Source: US20130197023A1, “NEUROPROTECTION BY PHARMACOLOGICAL CHAPERONING OF NICOTINIC ACETYLCHOLINE RECEPTORS” (priority 2012, published 2013)
